Reference: patent US8273726B2, “Compositions for treating and/or preventing diseases characterized by the presence of metal ions” (Brandeis University, priority 2002, dated 2012)
“Also recorded” adds a separate entry of the source. Counter-ions that a name gives are not always drawn. Like-named read-outs stand apart in the source and are kept apart here.

How the values were obtained:
[1] = system: peptide 1 (A-beta1-42 peptide); experiment: CD titration of iron-complexed peptide 1 with silanes (Example 9); type: biochemical, human
[2] = system: NF-M17; experiment: CD titration of NF-M17 peptide/aluminum with silicon compounds (Example 1); type: biochemical, human
[3] = system: A-beta antigen; experiment: Slot blot of A-beta antigen extracted from Alzheimer's brain tissue sections (Example 8); parameters: species or system human
[4] = in vitro; conditions: human, Caco-2
[5] = biological target: T1, A-beta1-42 peptide (Homo sapiens, UniProt P05067); type: biochemical
T1 sequence (P05067 672-713): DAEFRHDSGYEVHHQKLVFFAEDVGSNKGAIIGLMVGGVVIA

[6] = system: A-beta1-42 peptide; type: biochemical, human
[7] = system: Caco-2 cells
[8] = biological target: T1, A-beta1-42 peptide; type: biochemical; remark: listed apart in the source
[9] = system: Caco-2 cells; conditions: for Permeation Coefficient (cm/sec) Mean ± SD, where applicable: human

## C[Si](O)(O)CCCC#N [3f, (dihydroxy)methyl(3-cyanopropyl)silane]
[1]
  return of the helical CD spectrum on titration of iron-complexed peptide 1: dosage effect is evident, but non-linear
  titration point showing the greatest degree of recovery: 0.25 eq.

## NCCC[Si](O)(O)O [APST, 3-aminopropylsilantriol]
[2]
  Restore original spectra?: Yes
  chelation of aluminum compared to sodium orthosilicate: improved chelation
  restoration of the CD spectrum of NF-M17/aluminum to its original shape: able to restore

## CC[Si](O)(CC)Cc1ccccc1 [BDS, benzyldiethylsilanol]
[2]
  Restore original spectra?: No
  restoration of the CD spectrum of NF-M17/aluminum to its original shape: did not restore

## CCC(C#N)C[Si](C)(Cl)Cl (centres unmarked) [CBMS, 2-cyanobutylmethyldichlorosilane]
[3]
  Total Extracted: 5.2 fmol
[4]
  Papp A→B: 6.5 ×10⁻⁶ cm/s

## C[Si](Cl)(Cl)CCC#N [CEMS, 2-cyanoethylmethyldichlorosilane]
[4]
  Papp A→B: 4.6 ×10⁻⁶ cm/s
[5]
  protection of the helical structure of A-beta1-42 against amyloid formation by aluminum (III): protection of the helical structure

## CC(C#N)C[Si](C)(Cl)Cl (centres unmarked) [CPMS, 2-cyanopropylmethyldichlorosilane]
[3]
  Total Extracted: 6.0 fmol
  extraction of A-beta antigen from Alzheimer's tissue: no detectable antigen
[4]
  Papp A→B: 6.1 ×10⁻⁶ cm/s

## N#CCCC[Si](Cl)(Cl)Cl [CPTCS, 3-cyanopropyltrichlorosilane]
[2]
  Restore original spectra?: Yes
  equivalents at which the CD spectrum of NF-M17/aluminum was restored to its original shape: around 32 equivalents
[6]
  reversal of the effect of aluminum on the CD spectrum of A-beta1-42: Moderate reversal; also recorded: almost full reversal

## CC[Si](Cl)(Cl)CC [DCDES, dichlorodiethylsilane]
[2]
  Restore original spectra?: Yes
  equivalents at which the CD spectrum of NF-M17/aluminum was restored to its original shape: around 32 equivalents
[6]
  restoration of the original CD spectrum of A-beta1-42 peptide after exposure to aluminum: at least partially restored

## CC(C)[Si](Cl)(Cl)C(C)C [DCDIPS, dichlorodiisopropylsilane]
[2]
  Restore original spectra?: Yes
  equivalents at which the CD spectrum of NF-M17/aluminum was restored to its original shape: around 32 equivalents
[6]
  restoration of the original CD spectrum of A-beta1-42 peptide after exposure to aluminum: at least partially restored

## O[Si](O)(c1ccccc1)c1ccccc1 [DPSD, diphenylsilandiol]
[2]; CD spectrum of NF-M17 with 8 equivalents of aluminum, in TFE
  Restore original spectra?: (DMSO interfered with spectra)
[2]; NF-M17 with 8 equivalents of aluminum, in TFE
  restoration of the CD spectrum of NF-M17/aluminum to its original shape: did not restore

## Cl [HCl, hydrochloric acid, reference compound]
[3]
  extraction of A-beta antigen from Alzheimer's tissue: no detectable antigen
[1]
  reversing the helix-coil transition by acid: effective for reversing the helix-coil transition

## CCCCCC[Si](C)(Cl)Cl [HMDS, hexylmethyldichlorosilane]
[2]
  Restore original spectra?: Yes
  equivalents at which the CD spectrum of NF-M17/aluminum was restored to its original shape: around 32 equivalents
[6]
  restoration of the original CD spectrum of A-beta1-42 peptide after exposure to aluminum: at least partially restored

## C[Si](Cl)(Cl)c1ccccc1 [MPDS, methylphenyldichlorosilane]
[2]
  Restore original spectra?: Yes
  equivalents at which the CD spectrum of NF-M17/aluminum was restored to its original shape: around 32 equivalents

## CCCCCCCC[Si](Cl)(Cl)Cl [OTCS, n-octyltrichlorosilane]
[2]
  Restore original spectra?: (gelation of OTCS)
  restoration of the CD spectrum of NF-M17/aluminum to its original shape: did not restore

## C1CC[Si]2(CCCCO2)OC1 [SDSU, 1,7-dioxa-6-sila-spiro[5.5]undecane]
[7]
  transport across Caco-2 cells: significant amount of transport
[6]
  restoration of the original CD spectrum of A-beta1-42 peptide after exposure to aluminum: at least partially restored

## CC(=O)O[Si](OC(C)=O)(OC(C)=O)OC(C)=O [TAS, tetraacetooxysilane]
[6]
  restoration of the original CD spectrum of A-beta1-42 peptide after exposure to aluminum: at least partially restored

## CC(C)(C)[Si](C)(C)O [TBDMS, tert-butyldimethylsilanol]
[2]
  Restore original spectra?: No
  restoration of the CD spectrum of NF-M17/aluminum to its original shape: did not restore

## CC[Si](O)(CC)CC [TES, triethylsilanol]
[2]
  Restore original spectra?: No
  restoration of the CD spectrum of NF-M17/aluminum to its original shape: did not restore
[6]
  restoration of the original CD spectrum of A-beta1-42 peptide after exposure to aluminum: at least partially restored

## [Zn] [Zinc]
[8]
  effect of the metal on the A-beta1-42 CD spectrum: minor or no effects

## C[Si](Cl)(Cl)CC[Si](C)(Cl)Cl [compound 1042, 1,2-(methyldichlorosilyl)ethane]
[3]; Braak V tissue, 1 h at room temperature, corrected for volume dilution
  Total Extracted: 14.0 fmol
[3]; based on the intensity from urea-solubilized tissues
  share of total antigen released to the extract: approximately 12%
[9]; Caco-2
  crossing of the epithelial barrier in the Caco-2 model: crossed the epithelial barrier efficiently
  permeation of Caco-2 cells relative to mannitol: at least four times greater
[9]; Caco-2, 60 min, 20 mM
  Permeation Coefficient (cm/sec) Mean ± SD, where applicable: 2.5 × 10^−5 (n = 2) cm/sec

## [Cu] [copper]
[8]
  effect of the metal on the A-beta1-42 CD spectrum: strong effects

## [Fe+2] [iron (II)]
[8]
  effect of the metal on the A-beta1-42 CD spectrum: minor or no effects

## [Fe+3] [iron (III)]
[8]
  effect of the metal on the A-beta1-42 CD spectrum: strong effects

## O.O.O.O.O.O.O.O.O.O=[Si]([O-])[O-].[Na+].[Na+] [sodium metasilicate, sodium metasilicate nonahydrate, reference compound]
[2]; NF-M17 with 8 equivalents of aluminum
  equivalents at which the CD curve began to return / showed some return to its original shape: about 32 equivalents

## CN(C)[Si](N(C)C)(N(C)C)N(C)C [tetrakis, tetrakis(dimethylamino)silane]
[6]
  restoration of the original CD spectrum of A-beta1-42 peptide after exposure to aluminum: at least partially restored

## (dichloro)methylsilylbutyronitrile [DCMSBN]
[7]
  relative transport across Caco-2 cells (FIG. 29B vs FIG. 29A): more transport
  transport across Caco-2 cells: significant amount of transport
[2]
  Restore original spectra?: Yes
  equivalents at which the CD spectrum of NF-M17/aluminum was restored to its original shape: around 32 equivalents
[6]
  restoration of the original CD spectrum of A-beta1-42 peptide after exposure to aluminum: at least partially restored

## Aluminum
[8]
  effect of the metal on the A-beta1-42 CD spectrum: decreases with higher concentrations; also recorded: strong effects

## dichlorosilacyclobutane [DCSCB]
[7]
  transport across Caco-2 cells: significant amount of transport
[6]
  restoration of the original CD spectrum of A-beta1-42 peptide after exposure to aluminum: at least partially restored

## triethoxysilylbutyronitrile [TESB]
[9]; Caco-2
  permeation of Caco-2 cells relative to mannitol: at least four times greater
  Permeation Coefficient (cm/sec) Mean ± SD, where applicable: 3.0 × 10^−5 (n = 2) cm/sec
[7]
  relative transport across Caco-2 cells (FIG. 29B vs FIG. 29A): more transport
  transport across Caco-2 cells: significant amount of transport
[6]
  restoration of the original CD spectrum of A-beta1-42 peptide after exposure to aluminum: at least partially restored; also recorded: reverses aluminum-induced denaturation

## triethoxysilylpropionitrile [TESP]
[6]
  restoration of the original CD spectrum of A-beta1-42 peptide after exposure to aluminum: at least partially restored

## trihydroxysilylmethyl phosphonate [TSMP]
[9]; Caco-2
  permeation of Caco-2 cells relative to mannitol: slower permeation than mannitol
